The values below come from PMC4058522, “Structural Basis for Phosphorylation-Dependent Recruitment of Tel2 to Hsp90 by Pih1” (Structure(London, England:1993), 2014).

The target of assay [1] is yeast Hsp90. Nature of the assay: ITC, binding of Tah1 or Tah1-Pih1 complex to Hsp90 dimer. The conditions noted are these: for Kd: 10 mM Tris pH 7.5, 5 mM NaCl, 600 μM Tah1 into 40 μM yeast Hsp90, or 301 μM yeast Hsp90 into 25 μM yeast Tah1-Pih1 complex; for N (sites) / ΔH / ΔS: same titrations as KD. The protocol: (§1) Heat of interaction was measured on an ITC200 microcalorimeter (Microcal) under the same buffer conditions (20 mM Tris, pH 7.5, containing 5 mM NaCl). Aliquots of the Tel2 peptides at 350 μM were injected into 30 μM of Pih1 at 30°C. Interactions with Tah1 or Spagh/RPAP3^120–395 were performed in 10 mM Tris pH 7.5 and 5 mM NaCl at 10°C and 30°C. Aliquots of 600 μM Tah1 were injected into 40 μM of yeast Hsp90, 400 μM of SRMEEVD injected into 30 μM Tah1, 301 μM yeast Hsp90 injected into 25 μM yeast Tah1-Pih1 complex, and 400 μM SRMEEVD injected into 30 μM yeast Tah1-Pih1 complex. For Spagh/RPAP3^120–395 experiments, aliquots of 500 μM yeast Hsp90 were injected into 20 μM Spagh/RPAP3^120–395 or 2 mM […] into 80 μM Spagh/RPAP3^120–395 or mutants (N172E, N321E, and N172E-N321E). Heats of dilution were determined by diluting injectant into buffer. Data were fitted using a curve-fitting algorithm (Microcal Origin). ATPase assays were previously described ([Prodromou et al., 1999]).
(In general: Isothermal titration calorimetry measures the heat released or taken up as one component is titrated into another.)

Assay [2] addresses T1, mouse Pih1-PIH domain (Mus musculus, UniProt Q9CQJ2).
T1 construct: We determined the crystal structure of the mouse PIH domain^1–200; His (N); made in house
As to the kind of experiment: ITC, phosphopeptide binding to Pih1 PIH domain. Conditions: 30°C; for Kd: 20 mM Tris pH 7.5, 5 mM NaCl, peptides at 350 μM injected into 30 μM Pih1. The protocol: as §1

“And” between values parts separate entries of the source, which are not always exact repeats. Equal entries are not always repeated. Square brackets hold non-standard residues; d marks the D form. Peptide text beside a SMILES is read from it. pS = N[C@@H](COP(=O)(O)O)C(=O)O

T1 sequence (Q9CQJ2 1-200): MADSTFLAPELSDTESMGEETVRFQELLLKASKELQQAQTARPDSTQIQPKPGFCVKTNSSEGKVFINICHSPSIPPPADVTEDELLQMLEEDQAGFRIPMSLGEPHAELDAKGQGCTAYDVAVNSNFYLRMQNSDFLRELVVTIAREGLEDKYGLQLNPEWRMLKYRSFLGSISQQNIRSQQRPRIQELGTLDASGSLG

Turning to “Tah1: yeast TPR-domain protein, Hsp90 cochaperone of the R2TP complex”, in assay [1], binding was put at a Kd of 5.9 µM, the “N (sites)” value was found to be 0.68 ± 0.01 sites, the ΔH is -8.445 ± 0.1642 kcal/mol and the ΔS was -3.95 cal/mol/deg.

In turn, `CC(C)C[C@H](NC(=O)[C@H](CCC(=O)O)NC(=O)[C@H](COP(=O)(O)O)NC(=O)[C@H](CC(=O)O)NC(=O)[C@H](COP(=O)(O)O)NC(=O)CNC(=O)[C@@H](N)CCC(N)=O)C(=O)N[C@@H](CC(=O)O)C(=O)N[C@@H](CO)C(=O)N[C@@H](CC(=O)O)C(=O)N[C@@H](CC(=O)O)C(=O)N[C@@H](CCC(=O)O)C(=O)N[C@@H](Cc1ccccc1)C(=O)O` [pS486, pS488-Tel2] returned a dissociation constant Kd in assay [2] of 37.9 µM.

In assay [2], `CC(C)C[C@H](NC(=O)[C@H](CCC(=O)O)NC(=O)[C@H](COP(=O)(O)O)NC(=O)[C@H](CC(=O)O)NC(=O)[C@H](CO)NC(=O)CNC(=O)[C@@H](N)CCC(N)=O)C(=O)N[C@@H](CC(=O)O)C(=O)N[C@@H](COP(=O)(O)O)C(=O)N[C@@H](CC(=O)O)C(=O)N[C@@H](CC(=O)O)C(=O)N[C@@H](CCC(=O)O)C(=O)N[C@@H](Cc1ccccc1)C(=O)O` [pS488,pS492-Tel2] displayed a dissociation constant Kd of 0.17 µM.

For `CC(C)C[C@H](NC(=O)[C@H](CCC(=O)O)NC(=O)[C@H](CO)NC(=O)[C@H](CC(=O)O)NC(=O)[C@H](COP(=O)(O)O)NC(=O)CNC(=O)[C@@H](N)CCC(N)=O)C(=O)N[C@@H](CC(=O)O)C(=O)N[C@@H](CO)C(=O)N[C@@H](CC(=O)O)C(=O)N[C@@H](CC(=O)O)C(=O)N[C@@H](CCC(=O)O)C(=O)N[C@@H](Cc1ccccc1)C(=O)O` [pS486-Tel2], the Kd in assay [2] is 115 µM and > 100 µM.

In assay [2], `CC(C)C[C@H](NC(=O)[C@H](CCC(=O)O)NC(=O)[C@H](COP(=O)(O)O)NC(=O)[C@H](CC(=O)O)NC(=O)[C@H](CO)NC(=O)CNC(=O)[C@@H](N)CCC(N)=O)C(=O)N[C@@H](CC(=O)O)C(=O)N[C@@H](CO)C(=O)N[C@@H](CC(=O)O)C(=O)N[C@@H](CC(=O)O)C(=O)N[C@@H](CCC(=O)O)C(=O)N[C@@H](Cc1ccccc1)C(=O)O` [pS488-Tel2] displayed a dissociation constant (Kd) of 15.3 µM.

As for “Tah1-Pih1 complex: pre-assembled full-length yeast Tah1-Pih1 complex”, in assay [1], binding was put at a Kd of 4 µM, the “N (sites)” value amounted to 0.93 ± 0.04 sites, the ΔH is -7.595 ± 0.404 kcal/mol and the ΔS was -0.367 cal/mol/deg.

For the compound `CC[C@H](C)[C@H](NC(=O)[C@H](CO)NC(=O)[C@H](CC(=O)O)NC(=O)[C@H](CC(=O)O)NC(=O)[C@H](COP(=O)(O)O)NC(=O)[C@H](CC(=O)O)NC(=O)[C@H](CC(N)=O)NC(=O)[C@H](C)NC(=O)[C@@H](N)CCSC)C(=O)O` [Mre11 phosphoserine peptide] (H-MAND[pS]DDSI-OH; N-terminus and C-terminus assumed), in assay [2], the ΔH is -7.313 ± 0.3547 kcal/mol and the ΔS is reported as -0.36 cal/mol/deg. Further, the N in assay [2] (fitted) was found to be 0.76 ± 0.03 sites.

Take `CC(C)C[C@H](NC(=O)[C@H](CCC(=O)O)NC(=O)[C@H](CO)NC(=O)[C@H](CC(=O)O)NC(=O)[C@H](CO)NC(=O)CNC(=O)[C@@H](N)CCC(N)=O)C(=O)N[C@@H](CC(=O)O)C(=O)N[C@@H](COP(=O)(O)O)C(=O)N[C@@H](CC(=O)O)C(=O)N[C@@H](CC(=O)O)C(=O)N[C@@H](CCC(=O)O)C(=O)N[C@@H](Cc1ccccc1)C(=O)O` [pS492-Tel2]: in assay [2], the Kd came to 0.39 µM.

By Kd is commonly meant the constant that tells how readily two partners part at equilibrium. A lower Kd goes with higher affinity.
